PubChem BioAssay (NCI)
“And” between values parts separate entries of the source, which are not always exact repeats. Equal values may be shown once.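 These data come from cells grown in 96-well plates and exposed to compound for 48 hours at five concentrations. GI50: concentration for 50% inhibition of growth. At the TGI there is no net growth.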

Legend:
Experiment in all cases: DTP human tumour cell line panel, 48 h
[1] = tested on: BT-549 breast
[2] = tested on: CCRF-CEM leukemia
[3] = tested on: HL-60(TB) leukemia
[4] = tested on: MDA-MB-435
[5] = tested on: NCI-H460 lung
[6] = tested on: SK-MEL-2 melanoma
[7] = tested on: SK-MEL-28 melanoma
[8] = tested on: SK-OV-3 ovarian
[9] = tested on: SNB-19 CNS
[10] = tested on: U251 CNS

Compound: O=C1CSC(c2ccccc2)N1c1ccc(-c2ccc(-n3c(-c4ccccc4)nc4ccccc4c3=O)cc2)cc1 (stereo not drawn)
- TGI [1]: > 100 µM
- TGI [2]: > 100 µM
- TGI [3]: > 100 µM
- TGI [4]: > 100 µM
- TGI [5]: > 100 µM
- TGI [6]: > 100 µM
- TGI [7]: > 100 µM
- TGI [8]: > 100 µM
- TGI [9]: > 100 µM
- TGI [10]: > 100 µM

Compound: CC/C(Cl)=N\OC(=O)Nc1ccc(F)c(Cl)c1
- TGI [1]: 51.3 µM
- TGI [2]: 4.91 µM
- TGI [3]: 4.33 µM
- TGI [4]: 39.4 µM
- TGI [5]: 34.3 µM
- TGI [6]: 33.5 µM
- TGI [7]: 30.1 µM
- TGI [8]: 32.5 µM
- TGI [9]: 20.7 µM
- TGI [10]: 33.9 µM

Compound: COc1ccc(C[C@H]2COC(=O)[C@@H]2Cc2ccc(Br)cc2)cc1OC
- TGI [1]: 84.2 µM
- TGI [2]: > 100 µM
- TGI [3]: > 61.6 µM
- TGI [4]: 55.7 µM
- TGI [5]: > 100 µM
- TGI [6]: 51.8 µM
- TGI [7]: > 100 µM
- TGI [8]: > 100 µM
- TGI [9]: > 61.8 µM
- TGI [10]: > 100 µM

Compound: Cc1cc(-c2nc3cc(F)ccc3s2)ccc1N
- TGI [1]: > 100 µM
- TGI [2]: > 100 µM
- TGI [3]: > 100 µM
- TGI [4]: > 100 µM
- TGI [5]: > 54.9 µM
- TGI [6]: > 68.4 µM
- TGI [7]: > 100 µM
- TGI [8]: > 100 µM
- TGI [9]: > 88.5 µM
- TGI [10]: > 91.7 µM

Compound: CN(C)c1n2c3ccc([N+](=O)[O-])cc3n3c(N(C)C)[n+]4ccccc4c3c2c2cccc[n+]12
- TGI [1]: > 100 µM
- TGI [2]: > 100 µM
- TGI [3]: > 100 µM
- TGI [4]: > 100 µM
- TGI [5]: > 100 µM
- TGI [6]: > 100 µM
- TGI [7]: > 100 µM
- TGI [8]: > 100 µM
- TGI [9]: > 100 µM
- TGI [10]: > 100 µM

Compound: OC1C2CCCCN2C[C@@H](O)[C@H]1O (stereo partly drawn)
- TGI [1]: > 100 µM
- TGI [2]: > 100 µM
- TGI [3]: > 100 µM
- TGI [4]: > 100 µM
- TGI [5]: > 100 µM
- TGI [6]: > 100 µM
- TGI [7]: > 100 µM
- TGI [8]: > 100 µM
- TGI [9]: > 100 µM
- TGI [10]: > 100 µM

Compound: COc1ccc2nc3ccc(OC)cc3c(S(=O)Cc3ccccc3)c2c1 (stereo not drawn)
- TGI [1]: 27.4 µM
- TGI [2]: > 22.1 µM
- TGI [3]: 35.9 µM
- TGI [4]: 27.8 µM
- TGI [5]: > 74.5 µM
- TGI [6]: 33 µM
- TGI [7]: 27.2 µM
- TGI [8]: 33.9 µM
- TGI [9]: 41.5 µM
- TGI [10]: > 56.1 µM

Compound: Cc1cc(NS(=O)(=O)c2ccc(NO)cc2)no1
- TGI [1]: > 100 µM
- TGI [2]: 44.7 µM
- TGI [3]: > 100 µM
- TGI [4]: 41.4 µM
- TGI [5]: > 100 µM
- TGI [6]: > 100 µM
- TGI [7]: > 100 µM
- TGI [8]: > 100 µM
- TGI [9]: > 100 µM

Compound: COC1(OC)CCN(Cc2ccccc2)C1=O
- TGI [1]: 31 µM
- TGI [2]: 6.3 µM
- TGI [3]: 4.15 µM
- TGI [4]: 29.8 µM
- TGI [5]: 41.2 µM
- TGI [6]: 34 µM
- TGI [7]: 23.3 µM
- TGI [8]: > 100 µM
- TGI [9]: 34.9 µM
- TGI [10]: 34.1 µM

Compound: COC(=O)CN1Cc2cc(C)cc(c2O)CN(CC(=O)OC)Cc2cc(C)cc(c2O)CN(CC(=O)OC)Cc2cc(C)cc(c2O)CN(CC(=O)OC)Cc2cc(C)cc(c2O)C1
- GI50 [1]: 15.3 µM
- TGI [1]: 50 µM and 77.7 µM
- GI50 [2]: 5.37 µM
- TGI [2]: 50 µM and 33.2 µM
- TGI [3]: 16 µM
- GI50 [4]: 45.9 µM
- TGI [4]: 50 µM and > 100 µM
- GI50 [5]: 21.7 µM
- TGI [5]: 50 µM and > 100 µM
- GI50 [6]: 2.36 µM
- TGI [6]: 50 µM and 31.3 µM
- GI50 [7]: 27.9 µM
- TGI [7]: 50 µM and > 100 µM
- GI50 [8]: 35.3 µM
- TGI [8]: 46.2 µM and > 100 µM
- GI50 [9]: 18.3 µM
- TGI [9]: 50 µM and > 100 µM
- GI50 [10]: 30.9 µM
- TGI [10]: 50 µM and > 100 µM

Compound: NC(=O)C1=C(O)[C@@]2(O)C(=O)C3=C(O)c4c(O)cccc4CC3C[C@H]2CC1=O (stereo partly drawn)
- TGI [1]: 9.46 µM
- TGI [2]: 10.4 µM
- TGI [3]: 14.9 µM
- TGI [4]: 40.2 µM
- TGI [5]: 11.8 µM
- TGI [6]: 4.72 µM
- TGI [7]: 22.8 µM
- TGI [8]: > 28.7 µM
- TGI [9]: 10.9 µM
- TGI [10]: 12.8 µM

Compound: Cc1ccc(NC(=O)c2cccc(OP(=O)(Nc3ccc(C)cc3)Nc3ccc(C)cc3)c2)cc1
- TGI [1]: > 100 µM
- TGI [2]: > 100 µM
- TGI [3]: > 100 µM
- TGI [4]: > 100 µM
- TGI [5]: > 100 µM
- TGI [6]: > 100 µM
- TGI [7]: > 100 µM
- TGI [8]: > 100 µM
- TGI [9]: > 100 µM
- TGI [10]: > 100 µM

Compound: O=C1c2ccccc2C(=O)c2c1oc1cc(O)c(Cl)cc21
- TGI [1]: 15.5 µM
- TGI [2]: 55.3 µM
- TGI [3]: 32.9 µM
- TGI [4]: 3.34 µM
- TGI [5]: 9.89 µM
- TGI [6]: 7.16 µM
- TGI [7]: 7.62 µM
- TGI [8]: 40 µM
- TGI [9]: 28 µM
- TGI [10]: 22.3 µM

Compound: COc1cc2c(cc1NC(=O)c1ccccc1)c1c(n2S(=O)(=O)c2ccccc2)CCN(S(=O)(=O)c2ccccc2)C1
- TGI [1]: > 100 µM
- TGI [2]: > 100 µM
- TGI [3]: > 100 µM
- TGI [4]: > 100 µM
- TGI [5]: > 100 µM
- TGI [6]: > 100 µM
- TGI [7]: > 100 µM
- TGI [8]: > 100 µM
- TGI [9]: > 100 µM
- TGI [10]: > 100 µM
